Data set [1] deals with T1, cysteine-34 position of endogenous albumin (Homo sapiens, UniProt P02768).
T1 construct: cysteine-34 position of endogenous albumin in blood plasma; from tissue; host or cells: human blood plasma
In words: Incubation study with human plasma (binding to albumin, HPLC). To be noted: 37° C., 100 μM, after 5 and 90 minutes, FIG. 4. How it is done: FIG. 4 is chromatogram of an incubation study of compound 3 with human plasma at 37° C. after 5 and 90 minutes. Chromatogram of an incubation study of compound 3 with human plasma at 37° C. after 5 and 90 minutes. The concentration of the anthracycline was 100 μM. HPLC chromatography conditions: see FIG. 3.

Data set [2] concerns PSA-positive xenograft model CWR22. In words: In-vivo activity in the PSA-positive xenograft model (CWR22). Also noted: species or system hairless mice. How it is done:
The course of the tumor growth of the subcutaneously growing PSA-positive xenograft model CWR22, which was treated with structure 3 [dose (i.v.): 2×13.3 μmol/kg (=2×8 mg/kg doxorubicin equivalents) on days 13 and 20; 3×39.9 μmol/kg (=3×24 mg/kg doxorubicin equivalents) on days 13, 20, and 27; and 3×59.9 μmol/kg (=3×36 mg/kg doxorubicin equivalents) on days 13, 20, and 27] is shown in FIG. 6.
Animals: hairless mice. Stock solution of compound 3:6.0 mg/mL in 10 mM sodium phosphate, 5% D-glucose (pH 6.4); control (buffer): glucose-phosphate buffer (10 mM sodium phosphate, 5% D-glucose—pH 6.4) on days 13 and 20.
The course of the tumor growth of the subcutaneously growing PSA-positive xenograft model CWR22, which was treated with structure 1 [dose (i.v.): 2×13.3 μmol/kg (=2×8 mg/kg doxorubicin equivalents) on days 13 and 20; 3×26.3 μmol/kg (=3×16 mg/kg doxorubicin equivalents) or with buffer (control) on days 13 and 20], is shown in FIG. 7.
Animals: hairless mice. Stock solution of compound 1:7.4 mg/mL in 10 mM sodium phosphate, 5% D-glucose (pH 6.4); control (buffer): glucose-phosphate buffer (10 mM sodium phosphate, 5% D-glucose—pH 6.4) on days 13 and 20.

Data set [3] has as its system CWR22 tissue homogenate. Kind of data set: Cleavage study of the doxorubicin dipeptide with CWR22 tissue homogenate (HPLC). The data set is classed as in vitro ADME. To be noted: pH 7.4, 37° C., anthracycline 100 μM, 5 minutes, 6 hours, 20 hours, FIG. 2. How it is done: FIG. 2 is chromatogram of a cleavage study of the doxorubicin-dipeptide Doxo-Arg-Ser with PSA-positive prostate carcinoma CWR22. Chromatogram of an incubation study of the cleaved doxorubicin-dipeptide [Doxo-Arg-Ser] with CWR22 homogenate recorded at 37° C. after 0 hours, 6 hours, and 20 hours. The concentration of anthracycline was […]. HPLC conditions: see FIG. 1. The CWR22 homogenate (250 mg/l mL) was produced by homogenization of CWR22 xenograft tumors in 50 mM tris-HCl buffer at pH 7.4 containing 1 mM monothioglycerol.
An incubation study at 37° C. with CWR22 tissue homogenate at pH 7.4 was conducted with the doxorubicin dipeptide (Doxo-Arg-Ser) obtained as described in Example 2. The concentration of anthracycline was 100 μM. HPLC chromatography was conducted under the conditions of Example 2 after 5 minutes, 6 hours, and 20 hours.

*: point of attachment. Hexanoyl(6-maleimido) = O=C1C=CC(=O)N1CCCCCC(=O)*

As to “EMC-Arg-Arg-Ser-Ser-Tyr-Tyr-Ser-Gly-Doxo ({Hexanoyl(6-maleimido)}-RRSSYYSG-doxorubicin) [compound 3]”, in data set [1], the “binding to albumin in blood plasma” value is “binds selectively within a few minutes”. The “antitumoral effect (relative tumor volume)” value in data set [2] (i.v. 2×13.3 μmol/kg on days 13 and 20, 3×26.3 μmol/kg, subcutaneous CWR22, FIG. 7) is “good antitumoral effect”; in data set [2] (i.v. 2×13.3, 3×39.9 and 3×59.9 μmol/kg on days 13, 20 (27), subcutaneous CWR22, FIG. 6) it was “good antitumoral effect”.
For the substance Doxo-Arg-Ser, the “cleavage in tumor tissue homogenate” value in data set [3] is “cleaved to doxorubicin in tumor tissue”.

The record behind these values is patent US20080161245A1, “Protein-Binding Anthracycline Peptide Derivatives and Drugs Containing Them” (KTB Tumorforschungsgesellschaft mbH, priority 2005, published 2008).
